Assays:
[1] = test system: A2058, A101D and SK-Mel-28 melanoma cells; test: Mitochondrial ROS, MitoSox Red; type: cell-based, human; settings: 5 μM, 1 h
Method: Briefly, cells (4×10^5 well) were seeded in a 6-well plate and incubated overnight. Twenty-four hours after plating, cells were treated with test compounds as indicated in each experiment. After washing with pre-warmed PBS, cells were incubated with fresh medium containing 5 μM MitoSox Red for 15 min at 37° C. The fluorescence intensity was measured at of 530ex/590em using flow cytometry (Cyan ADP). The cells only sample (no MitoSox dye added) was used as the background. Approximately 30,000 counts were made for each sample. Experiments were repeated for three times and at least duplicate samples were included in each experiment.
Mitochondrial ROS was measured by MitoSox Red according to the manufacturer's instructions (Molecular Probes, CA). The intensity of fluorescence was quantified by digital analysis of images obtained from confocal microscopy using Image Pro Premiere software (Media Cybernetics Inc., Bethesda, Md.) (A2058, FIG. 74A) or by flow cytometry (FIG. 74B). Cells were treated with either 5 μM of COH-SR4, rotenone (mitochondrial complex 1 inhibitor) or elesclomol for 1 h. *Results represent fold increase of ROS generation over control and are expressed as mean±SD from three independent experiments.

[2] = test system: HUVEC cells; test: HUVEC cytotoxicity; type: cell-based; settings: 48 hours, up to 10 μM
Method: HUVEC were treated with COH-SR4 at a concentration from 0.1˜100 μM for 48 hours.

[3] = test system: H358 lung cancer; type: in vivo; settings: day 60; 4 mg/kg b.w. oral alternate day; control 2.02±0.3 g
Method: For lung cancer studies, twelve 10-weeks-old mice were divided into two groups of 6 animals (treated with corn oil (vehicle), and COH-SR4 compound 4 mg/kg b.w.). All animals were injected with 2×10^6 H358 cells suspensions in 100 μL of PBS, subcutaneously into one flank of each mouse. At the same time, animals were randomized treatment groups as well as control groups. Treatment was started 10 days after the implantation to see palpable tumor growth. Treatment consisted of 0.1 mg of COH-SR4/m ice in 200 μL corn oil by oral gavage alternate day. Control groups were treated with 200 μL corn oil by oral gavage alternate day. Animals were examined daily for signs of tumor growth. Tumors were measured in two dimensions using calipers. Photographs of animals were taken at day 1, day 10, day 14, day 18, day 30, and day 60 after subcutaneous injection.
Hsd: Athymic nude nu/nu mice obtained from Harlan, Indianapolis, Ind. were used for the oral administration of COH-SR4 on lung cancer progression in in-vivo xenograft model. Twelve 10-weeks-old mice were divided into two groups of 6 animals (treated with corn oil (vehicle), and COH-SR4 4 mg/kg b.w.). […] Animals were examined daily for signs of tumor growth and body weights were recorded. […] Tumors were measured in two dimensions using calipers. […] The absorption of orally administered COH-SR4 in mice was assessed.

[4] = test system: U251 glioma cells; test: Combination index with chemotherapy drugs, U251; type: cell-based
Method: Effects of combination of COH-SR4 and a chemotherapy drug such as TMZ, SN38, CPT-11, and 5-FU were studied by combination index (CI) theorem and plot using the method described in Chou (“Experimental Design, and Computerized Simulation of Synergism and Antagonism in Drug Combination Studies,” Pharmacological Reviews, Vol. 58, No. 3), which is incorporated herein by reference in its entirety.
COH-SR4 and a chemotherapy drug (TMZ, SN38, CPT-11, or 5-FU) were dissolved in DMSO individually, and then diluted to the appropriate concentration in the same cell culture media before applying to cells of each cell line. After 4 days, the amount of ATP present in the cell lysates were assessed using Progema's CellGlo kit. The CI of each combination of COH-SR4 and the chemotherapy drug was calculated and plotted against the concentration of COH-SR4 for each concentration of the chemotherapy drug used.

[5] = test system: GST; test: GST activity towards CDNB in lung cancer cell supernatants; type: biochemical, human; settings: H1417, H1618, H520, H358 supernatants; 1 mM GSH and CDNB
Method: In the context of the elevation of GSTs in lung cancer, the impact of COH-SR4 on the catalytic activity of GSTs towards 1-chloro 2,4-dinitro benzene (CDNB), a model substrate used for GST activity was analyzed. GST activity towards 1-chloro 2,4-dinitro benzene (CDNB) and its inhibition by COH-SR4 was performed in 28000×g crude supernatant prepared from H1417, H1618, H520 and H358 cells. The inhibitory effect of COH-SR4 on GST was studied at a fixed concentration of GSH and CDNB (1 mM each) and varying concentrations of inhibitor. The enzymes were pre-incubated with the inhibitor for 5 min at 37° C. prior to the addition of the substrates. The experiment was repeated three times and similar results were obtained. […] Human liver purified GST was used as a control (FIG. 79B, inset). GSTs are a class of phase II detoxifying enzymes, which regulate detoxification of administered chemotherapy drugs for further efflux out of cells by transport proteins. The GST inhibition leads to accumulation of toxic end-products of lipid peroxidation due to decreased efflux of GS-HNE which also reinforces the GST inhibition by feedback inhibition. The over-expression of GSTs is a common phenomenon associated with malignant progression of many cancers including lung cancer, melanomas skin and prostate cancers. […]

What does the source list for `O=C(Nc1cc(Cl)cc(Cl)c1)Nc1cc(Cl)cc(Cl)c1` [COH-SR4, 1,3-bis(3,5-dichlorophenyl) urea]?
mitochondrial ROS production (MitoSox Red) [1]: induced ROS production; cytotoxicity to HUVEC cells [2]: almost no cytotoxicity; tumor weight [3]: 0.77 ± 0.2 g; combination effect (CI) with CPT-11 ([4]; COH-SR4 <0.5 μM + CPT-11 <0.125 μM): Synergism; combination effect (CI) with SN-38 ([4]; COH-SR4 <0.5 μM + SN-38 <0.001 μM): Synergism; combination effect (CI) with TMZ ([4]; COH-SR4 <0.5 μM + TMZ 12.5 μM, 4 days): Synergism; combination effect (CI) with SN-38 ([4]; COH-SR4 >0.5 μM + SN-38 <0.003 μM): Additive effects; combination effect (CI) with TMZ ([4]; COH-SR4 >0.65 μM + TMZ 100 μM): Additive effects; combination effect (CI) with CPT-11 ([4]; COH-SR4 >0.675 μM + CPT-11 >0.5 μM): Additive effects; total GST activity towards CDNB [5]: inhibited the total GST activity to a significant extent
